# Source: patent US20220249679A1 (Mitsubishi Tanabe Pharma Corporation, priority 2018, published 2022)
# What was measured:
# [1] = test system: cyno CD138; assay: FACS binding to Expi293 cells transfected with cyno CD138; parameters: species or system cynomolgus monkey; details: 3-fold dilutions from 33.3 μg/mL
# Protocol: (§1) 12P16F6 hIgG1 or 13P30A7 hIgG1 were tested for cross-reactivity to cynomolgus monkey CD138. Antibodies that cross-react with CD138 from cynomolgus monkey (cyno) have an advantage that they can be tested for toxicity in this strain of non-human primate prior to conducting efficacy trials. Briefly, a vector directing the cell-surface expression of human CD138 or cyno CD138 was transfected in Expi293 cells. Binding of 12P16F6 hIgG1 and 13P30A7 hIgG1 to transfected Expi293 cells was tested at 3-fold dilutions starting at 33.3 μg/mL.
# [2] = target: T1, human CD138 (Homo sapiens, UniProt P18827); assay: FACS binding to Expi293 cells transfected with human CD138; details: 3-fold dilutions from 33.3 μg/mL
# T1 sequence (P18827 23-310): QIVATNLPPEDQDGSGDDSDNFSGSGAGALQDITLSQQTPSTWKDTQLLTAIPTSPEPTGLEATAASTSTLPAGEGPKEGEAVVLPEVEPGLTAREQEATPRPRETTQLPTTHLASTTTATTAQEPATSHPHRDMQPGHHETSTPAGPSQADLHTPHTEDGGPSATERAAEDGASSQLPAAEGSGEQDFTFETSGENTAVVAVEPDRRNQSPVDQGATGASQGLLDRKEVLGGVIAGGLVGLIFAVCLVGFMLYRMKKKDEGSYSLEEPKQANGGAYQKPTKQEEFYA
# Protocol: as §1
# cyno CD138, sequence (as listed by the source): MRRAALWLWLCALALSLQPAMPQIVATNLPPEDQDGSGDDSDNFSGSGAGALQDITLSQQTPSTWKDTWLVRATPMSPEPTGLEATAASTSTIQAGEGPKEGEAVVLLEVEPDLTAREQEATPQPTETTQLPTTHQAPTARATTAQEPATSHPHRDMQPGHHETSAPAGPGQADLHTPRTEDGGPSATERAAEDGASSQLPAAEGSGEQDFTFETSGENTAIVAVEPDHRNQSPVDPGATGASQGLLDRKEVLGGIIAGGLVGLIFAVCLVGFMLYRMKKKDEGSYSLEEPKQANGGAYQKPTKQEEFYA
substance,measurement,setting,value
Secukinumab [reference compound],binding to cynomolgus CD138 expressing cells,[1],little or no specific binding
same,binding to human CD138 expressing cells,[2],little or no specific binding
